# Where “and” joins values, the source holds several entries; their conditions need not be identical. Identical values can stand only once. Entries after “also recorded” stand apart in the source; their conditions may differ. Like-named read-outs stand apart in the source and are kept apart here.
# Assay: Phase 1b MAD plasma pharmacokinetics, non-compartmental analysis
# Type: in vivo, human
# Excerpt: Methods: All study procedures were approved by the IRB, and informed consent was obtained. Three cohorts of volunteers 45-80 years of age with well-controlled comorbidities (NOAD) and one cohort of AD patients diagnosed with cognitive impairment consistent with prodromal AD per International Working Group criteria or mild AD per National Institute on Aging—Alzheimer's Association criteria (n=6 active, 2 placebo per cohort) were enrolled. Participants were admitted to the study site for the duration of the dosing and returned 7-12 days after the last dose for a safety visit. Participants received NTRX-07 (10, 30, or 90 mg) or a placebo in a double-blinded randomization orally once daily for seven days. Subjects were assessed for changes in vital signs, including maneuvers to induce lightheadedness, electrocardiograms, 24-hour electroencephalograms (EEG), and safety laboratory studies. The second cohort returned and received a single repeat dose after a standard high-fat meal. The AD cohort also underwent cognitive testing and had blood samples for biomarkers drawn. Subjects had PK sampling done after the first and final dose of the study drug. An independent safety review committee conducted a blinded safety review of adverse events and plasma levels between each cohort.
# All subjects had PK sampling done after the first and final dose of the study drug.
# (§1) Raw bioanalytical data were received from Nuvisan following analysis of plasma samples from each of four cohorts. PK parameters were calculated by noncompartmental analysis using standard equations. Specifically, area under the plasma concentration versus time curve (AUC) was calculated using the trapezoid rule. Maximal plasma concentration (Cmax) and time of maximal plasma concentration (Tmax) were taken directly from the data. Clearance divided by bioavailability (Cl/F) was calculated as the dose divided by the AUC. Apparent volume of distribution over bioavailability (Vd/F) was calculated as dose divided by Cmax.
# With oral administration of the dose every 24 hours for 7 days, blood samples were taken over a 24-hour interval on Days 1 and 7 and before and after dosing on Day 3.
# as §1, with “on Oct. 27, 2022. […]” for “following analysis of plasma samples from each of four cohorts. PK parameters were calculated by noncompartmental analysis using standard equations.”
# as §1, with “on Nov. 24, 2022. […]” for “following analysis of plasma samples from each of four cohorts. PK parameters were calculated by noncompartmental analysis using standard equations.”
# as §1, with “on Dec. 19, 2022. […]” for “following analysis of plasma samples from each of four cohorts. PK parameters were calculated by noncompartmental analysis using standard equations.”
# Raw bioanalytical data were received from Nuvisan on Jun. 30, 2023. […] Specifically, area under the plasma concentration versus time curve (AUC) was calculated using the trapezoid rule. Maximal plasma concentration (Cmax) and time of maximal plasma concentration (Tmax) were taken directly from the data. […]
# [1] = Table 17: Cohort D (AD), 90 mg QD oral, Day 7, individual subjects
# [2] = Table 19 (interim): Cohort A, 40 mg SDD (10 mg NTRX-07) QD oral, Day 1, individual subjects
# [3] = Table 20 (interim): Cohort A, 40 mg SDD (10 mg NTRX-07) QD oral, Day 7, individual subjects
# [4] = Table 24 (interim): Cohort B, 120 mg SDD (30 mg NTRX-07) QD oral, Day 1, individual subjects
# [5] = Table 25 (interim): Cohort B, 120 mg SDD (30 mg NTRX-07) QD oral, Day 7, individual subjects
# [6] = Table 29 (interim): Cohort C, 360 mg SDD (90 mg NTRX-07) QD oral, Day 1, individual subjects
# [7] = Table 30 (interim): Cohort C, 360 mg SDD (90 mg NTRX-07) QD oral, Day 7, individual subjects
# [8] = Table 34 (interim): Cohort D (AD), 360 mg SDD (90 mg NTRX-07) QD oral, Day 1, individual subjects
# [9] = Table 35 (interim): Cohort D (AD), 360 mg SDD (90 mg NTRX-07) QD oral, Day 7, individual subjects
structure (smiles),measurement,setting,value
"CC1(Cc2ccccc2)COc2cc(C(=O)N3CCCCC3)ccc21 (centres unmarked) [NTRX-07, 3-benzyl-3-methyl-2,3-dihydrobenzofuran-6-carboxylic acid-piperidine amide]",Cmax,[1],250 ng/mL and 262 ng/mL and 246 ng/mL and 176 ng/mL and 221 ng/mL
same,Tmax,[1],1.5 h (3×) and 1 h
same,Cl/F,"Table 17: Cohort D (AD), 90 mg QD oral, Day 7, mean ± S.D.",117 ± 28 L/h
same,AUC24 h,[2],35.7 ng·h/mL and 73.8 ng·h/mL and 151.0 ng·h/mL and 46.3 ng·h/mL and 154.2 ng·h/mL and 96.8 ng·h/mL
same,Cl/F,[2],1120 L/h and 542 L/h and 265 L/h and 864 L/h and 259 L/h and 413 L/h
same,Cmax,[2],24.2 ng/mL and 45.0 ng/mL and 36.7 ng/mL and 18.2 ng/mL and 52.6 ng/mL and 37.0 ng/mL
same,Tmax,[2],1.0 h
same,Cl/F,"Table 19 (interim): Cohort A, 40 mg SDD (10 mg NTRX-07) QD oral, Day 1, mean ± S.D.",577 ± 347 L/h
same,AUC24 h,[3],49.5 ng·h/mL and 92.8 ng·h/mL and 223.8 ng·h/mL and 41.5 ng·h/mL and 91.9 ng·h/mL and 67.0 ng·h/mL
same,Cl/F,[3],808 L/h and 431 L/h and 179 L/h and 963 L/h and 435 L/h and 597 L/h
same,Cmax,[3],29.6 ng/mL and 39.4 ng/mL and 63.6 ng/mL and 19.6 ng/mL and 46.7 ng/mL and 27.1 ng/mL
same,Tmax,[3],1.0 h
same,Cl/F,"Table 20 (interim): Cohort A, 40 mg SDD (10 mg NTRX-07) QD oral, Day 7, mean ± S.D.",569 ± 284 L/h
same,AUC24 h,[4],152.3 ng·h/mL and 462.4 ng·h/mL and 716.3 ng·h/mL and 369.3 ng·h/mL and 229.9 ng·h/mL and 97.4 ng·h/mL and 236.4 ng·h/mL
same,Cl/F,[4],788 L/h and 260 L/h and 168 L/h and 325 L/h and 522 L/h and 1231 L/h and 508 L/h
same,Cmax,[4],60.8 ng/mL and 93.9 ng/mL and 209 ng/mL and 127 ng/mL and 153 ng/mL and 47.9 ng/mL and 70.6 ng/mL
same,Tmax,[4],1 h (3×) and 2 h
same,Cl/F,"Table 24 (interim): Cohort B, 120 mg SDD (30 mg NTRX-07) QD oral, Day 1, mean ± S.D.",549 ± 401 L/h
same,AUC24 h,[5],118.0 ng·h/mL and 582.3 ng·h/mL and 286.5 ng·h/mL and 241.7 ng·h/mL and 67.1 ng·h/mL and 200.4 ng·h/mL
same,Cl/F,[5],1017 L/h and 206 L/h and 419 L/h
same,Cmax,[5],92.9 ng/mL and 236 ng/mL and 127 ng/mL
same,Tmax,[5],1 h
same,AUC24 h,[6],1629 ng·h/mL and 857 ng·h/mL and 925 ng·h/mL and 657 ng·h/mL and 1730 ng·h/mL and 1949 ng·h/mL
same,Tmax,[6],1.5 h (2×) and 8 h and 1 h and 3 h
same,AUC24 h,[7],783 ng·h/mL and 604 ng·h/mL and 354 ng·h/mL and 516 ng·h/mL and 876 ng·h/mL and 1349 ng·h/mL
same,Tmax,[7],2 h and 1.5 h and 3 h
same,AUC24 h,[8],1004 ng·h/mL and 1255 ng·h/mL and 2727 ng·h/mL and 1349 ng·h/mL and 1580 ng·h/mL and 1422 ng·h/mL
same,Tmax,[8],2 h and 1 h (2×) and 1.5 h
same,AUC24 h,[9],1854 ng·h/mL and 1659 ng·h/mL and 1603 ng·h/mL and 1328 ng·h/mL and 1130 ng·h/mL
same,Tmax,[9],1.5 h (3×) and 1 h
same,PK / plasma levels AD vs Non-AD participants,high dose (90 mg),similar; also recorded: comparable
same,Cmax,"human, plasma, oral, 90 mg, high dose (90 mg), AD participants, read-out: Cmax",477 ng/mL
same,AUC(0-t),"human, plasma, oral, 90 mg, high dose (90 mg), AD participants, read-out: average of AUC0-24 h",1560 ng·h/mL
same,Cmax,"human, plasma, oral, 90 mg, high dose (90 mg), Non-AD participants, read-out: Cmax",439 ng/mL
same,AUC(0-t),"human, plasma, oral, 90 mg, high dose (90 mg), Non-AD participants, read-out: average of AUC0-24 h",1290 ng·h/mL
same,AUC(0-t),"human, plasma, po, 10 mg, Cohort A healthy, 10 mg QD oral, Day 1, mean ± SD, read-out: Average of AUC24 h",78.8 ± 43.7 ng·h/mL
same,Cmax,"human, plasma, po, 10 mg, Cohort A healthy, 10 mg QD oral, Day 1, mean ± SD, read-out: Average of Cmax",35.6 ± 12.8 ng/mL
same,Tmax,"human, plasma, po, 10 mg, Cohort A healthy, 10 mg QD oral, Day 1, mean ± SD, read-out: Average of Tmax",0.7 ± 0.3 h
same,Vd/F,"human, plasma, po, 10 mg, Cohort A healthy, 10 mg QD oral, Day 1, mean ± SD, read-out: Average of Vd/F",1280 ± 544 L
same,AUC(0-t),"human, plasma, po, 10 mg, Cohort A healthy, 10 mg QD oral, Day 7, mean ± SD, read-out: Average of AUC24 h",90.4 ± 67.9 ng·h/mL
same,Cmax,"human, plasma, po, 10 mg, Cohort A healthy, 10 mg QD oral, Day 7, mean ± SD, read-out: Average of Cmax",37.7 ± 15.9 ng/mL
same,Tmax,"human, plasma, po, 10 mg, Cohort A healthy, 10 mg QD oral, Day 7, mean ± SD, read-out: Average of Tmax",0.8 ± 0.3 h
same,Vd/F,"human, plasma, po, 10 mg, Cohort A healthy, 10 mg QD oral, Day 7, mean ± SD, read-out: Average of Vd/F",307 ± 126 L
same,Tmax,"human, plasma, po, 10 mg, Table 9: Cohort A, 10 mg QD oral, Day 1, individual subjects, read-out: Tmax",0.5 h
same,AUC(0-t),"human, plasma, po, 10 mg, Table 9: Cohort A, 10 mg QD oral, Day 1, mean ± S.D., read-out: AUClast",78.8 ± 43.7 ng·h/mL
same,Cmax,"human, plasma, po, 10 mg, Table 9: Cohort A, 10 mg QD oral, Day 1, mean ± S.D., read-out: Cmax",35.6 ± 12.8 ng/mL
same,Tmax,"human, plasma, po, 10 mg, Table 9: Cohort A, 10 mg QD oral, Day 1, mean ± S.D., read-out: Tmax",0.7 ± 0.3 h
same,Vd/F,"human, plasma, po, 10 mg, Table 9: Cohort A, 10 mg QD oral, Day 1, mean ± S.D., read-out: Vd/F",1280 ± 544 L
same,Tmax,"human, plasma, po, 10 mg, Table 10: Cohort A, 10 mg QD oral, Day 7, individual subjects, read-out: Tmax",0.5 h
same,AUC over 24 h (AUC0-24),"human, plasma, po, 10 mg, Table 10: Cohort A, 10 mg QD oral, Day 7, mean ± S.D.",90.4 ± 67.9 ng·h/mL
